For one data set, the system named is TMD-8 cell. Nature of the data set: TMD-8 cell viability test (CellTiter-Glo, 72 h). The format is cell-based. The settings on record: Homo sapiens, TMD8. The method, then: 7) After incubation, readings at 620 and 665 nm on EnVingen were recorded. • <2> TMD-8 cell viability test • 1) Cell Culture
Cells were regularly passaged. Cells at logarithmic growth phase were transferred to the plate. • 2) Plating • (1). Cells were stained with trypan blue and viable cells were counted. • (2). Cell concentration was adjusted to 7000 cells/well • (3). 90 μL of cell suspension was added to each well of the plate and cell-free medium was added to blank control wells. • (4). The plate was incubated overnight at 37° C., 5% CO2 and 100% relative humidity in an incubator. • 3) Preparation of Plate Containing Compound Stock
(1). Preparation of plate containing 400× compound stock: Compounds were diluted from the highest concentration gradient to lowest concentration with DMSO. • 4) Preparation of 10× compound working solution and treatment • (1). Preparation of 10× compound working solution: 78 μL of cell culture medium was added to a V-bottom 96-well plate, and 2 μL of compound stock solution was pipetted from the plate containing 400× compound stock into the cell cultures of 96-well plate. 2 μL of DMSO was added to the vehicle control wells and blank control wells. After compounds or DMSO was added, the mixture was well mixed by a pipette. • (2). 10 μL of DMSO-cell culture medium mixture solution was added to the vehicle control wells and blank control wells. The final concentration of DMSO was 0.25%. • (3). The 96-well cell plate was incubated in the incubator for another 72 h. • 5) CellTiter-Glo Luminescent Cell Viability Assay
The following procedure was performed according to the instructions of Promega CellTiter-Glo luminescent cell viability assay kit (Promega-G7573). • (1). CellTiter-Glo buffer was thawed and let stand at room temperature. • (2). The CellTiter-Glo substrate was let stand at room temperature. • (3). The CellTiter-Glo buffer was added to a flask of CellTiter-Glo substrate to dissolve the substrate, thereby preparing a CellTiter-Glo working solution. • (4). The solution was vortexed to completely dissolve the substrate. • (5). The plate was incubated at room temperature for 30 min for equilibration. • (6). 50 μL (equal to half the volume of cell culture medium in each well) of CellTiter-Glo working solution was added to each well. The plate was covered by aluminum foil to avoid light. • (7). The plate was shaken on an orbital shaker for 2 min to induce cell lysis. • (8). The plate was let stand at room temperature for 10 min to stabilize the luminescence signals. • (9). The luminescence signals were detected on 2104 EnVision plate reader.

Data set [1] is described as follows: In vivo DMPK study, single dose in female Balb/c mice. Conditions: mice. How it is done:
Objective: To evaluate the plasma concentration of the compounds and pharmacokinetics after a single dose in female Balb/c mice.
Procedures: 8 healthy adult female Balb/c mice were randomized, 4 for intravenous administration and 4 for oral administration. The compounds were mixed with a proper amount of vehicle for intravenous injection (DMSO/PEG200/water (5:45:50 v/v/v)). The mixture was vortexed and treated with ultrasound to give a 1.0 mg/mL clear solution. The clear solution was filtered through a microporous membrane filter for later use. For the oral group, the vehicle was 0.5% MC/0.2% Tween 80. The compound was mixed with the vehicle, and the mixture was vortexed and ultrasonically treated to give 1.0 mg/mL uniform suspension for later use. The mice were administered intravenously at 1 mg/kg or orally at 3 mg/kg. Whole blood was collected at certain time points, and plasma was separated. The drug concentration was measured by LC-MS/MS, and pharmacokinetic parameters were calculated using
Phoenix WinNonlin software (Pharsight, USA).

Assay in data set [2]: as above
The settings on record: mouse, plasma, po, 1 mg/kg, (1 mpk).

The target of the next data set is PI3K delta (Homo sapiens, UniProt O00329). Nature of the data set: In vitro enzyme activity assay (ADP-Glo lipid kinase), PI3K delta.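 Further: kinase reaction run at 23 °C, then leftover ATP depleted and the ADP formed turned back into ATP, with the luciferin/luciferase signal read as kinase activity.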 Conditions: PI3Kδ IC50, ATP 40 μM, PIP2:3PS 50 μM, 120 min. On the technique in general: ADP-Glo first removes unused ATP, then detects ADP through luciferase.
A further data set concerns the target PI3K gamma (Homo sapiens, UniProt P48736). In words: In vitro enzyme activity assay (ADP-Glo lipid kinase), PI3K gamma. Conditions: PI3Kγ IC50, ATP 25 μM, PIP2:3PS 50 μM, 120 min.

We go through one compound from patent US20220112217A1, “PYRAZOLOPYRIMIDINE DERIVATIVE AND USE THEREOF AS PI3K INHIBITOR” (MEDSHINE DISCOVERY INC., priority 2018, published 2022).

Chain of PI3K gamma (P48736 whole entry): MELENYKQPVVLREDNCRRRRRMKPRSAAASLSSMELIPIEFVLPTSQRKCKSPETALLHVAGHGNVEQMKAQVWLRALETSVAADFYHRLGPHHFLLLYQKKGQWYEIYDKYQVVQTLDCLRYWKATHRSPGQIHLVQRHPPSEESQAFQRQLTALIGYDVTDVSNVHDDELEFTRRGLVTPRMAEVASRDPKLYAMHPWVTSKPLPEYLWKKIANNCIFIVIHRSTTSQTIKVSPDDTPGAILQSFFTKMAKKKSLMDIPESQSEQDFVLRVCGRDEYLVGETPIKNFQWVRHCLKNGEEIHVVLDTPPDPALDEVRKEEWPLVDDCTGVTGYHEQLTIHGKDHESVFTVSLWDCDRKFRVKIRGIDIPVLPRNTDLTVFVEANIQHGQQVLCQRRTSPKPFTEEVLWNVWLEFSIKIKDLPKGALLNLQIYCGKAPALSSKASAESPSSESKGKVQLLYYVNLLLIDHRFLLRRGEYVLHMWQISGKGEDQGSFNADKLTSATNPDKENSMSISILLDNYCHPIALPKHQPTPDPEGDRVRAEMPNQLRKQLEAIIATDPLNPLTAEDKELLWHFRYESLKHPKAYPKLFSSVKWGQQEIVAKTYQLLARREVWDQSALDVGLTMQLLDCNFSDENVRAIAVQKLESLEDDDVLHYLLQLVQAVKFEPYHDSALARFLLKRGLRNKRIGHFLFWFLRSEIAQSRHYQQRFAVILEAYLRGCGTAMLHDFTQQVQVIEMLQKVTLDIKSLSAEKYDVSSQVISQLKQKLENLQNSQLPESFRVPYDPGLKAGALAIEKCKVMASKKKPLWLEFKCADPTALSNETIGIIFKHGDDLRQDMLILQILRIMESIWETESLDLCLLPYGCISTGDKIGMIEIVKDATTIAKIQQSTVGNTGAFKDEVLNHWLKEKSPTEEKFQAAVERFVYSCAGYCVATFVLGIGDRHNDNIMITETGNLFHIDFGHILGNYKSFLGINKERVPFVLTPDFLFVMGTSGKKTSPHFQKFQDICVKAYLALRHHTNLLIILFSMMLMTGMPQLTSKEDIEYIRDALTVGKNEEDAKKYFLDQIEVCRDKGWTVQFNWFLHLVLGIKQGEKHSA
Chain of PI3K delta (O00329 whole entry): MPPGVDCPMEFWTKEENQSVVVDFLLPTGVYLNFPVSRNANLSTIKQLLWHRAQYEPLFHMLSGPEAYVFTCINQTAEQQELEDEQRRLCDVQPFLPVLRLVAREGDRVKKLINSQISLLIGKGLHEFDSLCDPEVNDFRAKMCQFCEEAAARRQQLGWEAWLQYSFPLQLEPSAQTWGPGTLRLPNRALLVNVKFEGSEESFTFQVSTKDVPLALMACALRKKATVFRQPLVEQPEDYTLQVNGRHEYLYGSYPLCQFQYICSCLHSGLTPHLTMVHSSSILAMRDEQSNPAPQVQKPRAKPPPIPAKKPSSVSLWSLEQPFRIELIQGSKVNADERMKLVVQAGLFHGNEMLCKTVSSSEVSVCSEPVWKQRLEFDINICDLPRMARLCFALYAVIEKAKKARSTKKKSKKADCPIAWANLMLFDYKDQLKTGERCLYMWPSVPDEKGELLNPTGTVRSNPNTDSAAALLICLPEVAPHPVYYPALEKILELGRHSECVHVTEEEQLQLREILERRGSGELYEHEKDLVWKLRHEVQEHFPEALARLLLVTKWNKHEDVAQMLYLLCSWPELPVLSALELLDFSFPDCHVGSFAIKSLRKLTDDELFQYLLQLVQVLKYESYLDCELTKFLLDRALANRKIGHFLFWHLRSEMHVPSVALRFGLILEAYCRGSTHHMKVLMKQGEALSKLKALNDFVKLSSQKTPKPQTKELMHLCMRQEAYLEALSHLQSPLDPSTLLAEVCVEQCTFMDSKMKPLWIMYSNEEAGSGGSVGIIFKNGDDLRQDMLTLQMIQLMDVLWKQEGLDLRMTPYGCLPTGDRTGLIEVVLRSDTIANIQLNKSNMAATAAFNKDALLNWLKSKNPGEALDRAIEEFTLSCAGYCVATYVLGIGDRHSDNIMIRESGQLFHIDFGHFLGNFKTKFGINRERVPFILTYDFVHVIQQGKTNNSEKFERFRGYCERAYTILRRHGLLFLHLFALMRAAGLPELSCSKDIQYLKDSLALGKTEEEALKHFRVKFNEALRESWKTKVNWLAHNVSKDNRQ
Chain of PI3K delta (P27986 whole entry partner): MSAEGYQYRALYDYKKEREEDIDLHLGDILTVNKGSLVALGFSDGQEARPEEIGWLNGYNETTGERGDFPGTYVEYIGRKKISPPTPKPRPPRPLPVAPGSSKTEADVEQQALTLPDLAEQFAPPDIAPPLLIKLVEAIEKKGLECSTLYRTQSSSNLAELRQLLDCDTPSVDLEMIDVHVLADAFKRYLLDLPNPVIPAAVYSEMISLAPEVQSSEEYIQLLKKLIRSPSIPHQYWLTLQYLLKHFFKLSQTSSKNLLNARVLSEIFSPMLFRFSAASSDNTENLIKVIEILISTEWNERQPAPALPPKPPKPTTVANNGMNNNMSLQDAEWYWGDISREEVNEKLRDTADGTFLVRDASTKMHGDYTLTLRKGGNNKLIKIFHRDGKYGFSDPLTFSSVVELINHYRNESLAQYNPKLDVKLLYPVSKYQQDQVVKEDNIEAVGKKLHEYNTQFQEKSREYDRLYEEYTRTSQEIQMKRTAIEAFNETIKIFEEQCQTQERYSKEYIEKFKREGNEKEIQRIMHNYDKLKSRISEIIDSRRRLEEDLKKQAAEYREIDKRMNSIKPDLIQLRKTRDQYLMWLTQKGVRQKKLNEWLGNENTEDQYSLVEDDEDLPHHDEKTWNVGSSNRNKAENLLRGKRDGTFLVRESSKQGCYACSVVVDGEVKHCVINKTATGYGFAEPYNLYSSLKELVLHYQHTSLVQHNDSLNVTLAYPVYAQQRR
Protocol for PI3K delta: (§1) An appropriate substrate and ATP were incubated at a suitable condition for lipid kinase reaction, followed by a two-step detection of kinase activity using an ADP-Glo™ kit. Step I: The kinase reaction was terminated and residual ATP was completely removed, leaving ADP only; Step II: A kinase assay reagent was added to convert ADP to ATP by a luciferin/luciferase reaction. Finally, a fluorescence output value was detected and converted into kinase activity.
(§2) • 2) Kit: ADP-Glo™ lipid kinase and PIP2:3PS kit (Promega #V1792)
The kit comprises: 1 mM PIP2:3PS, 10× lipid dilution buffer, 1 M magnesium chloride, 10 mM ATP, 10 mM ADP, ADP-Glo reagent, detection buffer and substrate. • 3) Plate: OptiPlate-384, white and transparent (PerkinElmer #6007299) Reagent preparation: • 1) 10x reaction buffer: 500 mM HEPES (4-(2-hydroxyethyl)-1-piperazineethanesulfonic acid), pH 7.5, 500 mM NaCl, 9 mM MgCl2; BSA: 10% stock solution, prepared in-house • 2) Condition for final test system: 1× reaction system: 50 mM HEPES, 50 mM NaCl, 3 mM MgCl2, 0.01% BSA (prepared on the day of experiment), 1% DMSO (v/v) +/−compound • 3) Reaction system: 3 μL of enzyme and substrate mixture (1:1) +2 μL of ATP/MgCl2 mixture +5 μL of ADP-Glo reagent +10 μL detection reagent.
The specific experimental procedures are as follows: • 1) Dilution: 50 nL of 100× compound/DMSO solution were transferred into a test plate using Echo • For PI3Kα, the compound was serially diluted by three fold from the highest concentration 0.111 mM to the 10th concentration. • For PI3Kβ/PI3Kδ/PI3Kγ, the compound was serially diluted by three fold from the highest concentration of 1.11 mM to the 10th concentration. • 2) Kinase reaction: • (1) The target compounds were prepared. 50 nL of 100× compound solution or DMSO was added to the corresponding plate • (2) A 3.33 × reaction buffer was prepared • (3) A 3.33× PIP2:3PS solution were prepared; the PIP2:3PS solution should be thawed by vortex for at least 1 min before use • (4) An ATP solution containing 5.25 mM MgCl2 was prepared • (5) 3.33× PI3Kα/PI3Kβ/PI3Kδ/PI3Kγ solutions were prepared • (6) The lipid kinase solution and PIP2:3PS solution were mixed at a volume ratio of 1:1 • (7) The 3.33 × lipid kinase buffer and PIP2:3PS solution were mixed at a volume ratio of 1:1 • (8) 3 μL of the mixed solution of reaction buffer and PIP2:3PS was added to Columns 1 and 2 of the plate • (9) 3 μL of the mixed solution of the enzyme and PIP2:3PS was added to the wells of the plate other than Columns 1 and 2, and was centrifuged for 10 s (1000 rpm). The mixture was incubated at 23° C. for 20 min • (10) 2 μL of ATP solution was added, and the mixture was centrifuged at 1000 rpm and was shaken to mix well • (11) The plate was covered, shaken for about 30 s, and incubated for 2 h at 23° C. • (12) 5 μL of ADP-Glo reagent containing 10 mM MgCl2 was added • (13) The mixture was centrifuged at 1000 rpm for 10 s, covered and shaken for about 30 s, and incubated at 23° C. for 60 min • (14) 10 μL of kinase assay reagent was added • (15) The mixture was centrifuged at 1000 rpm for 10 s, and incubated at 23° C. for 60 min • (16) Fluorescence values were measured by an Envision system. • 2.
Protocol for PI3K gamma: as §1, §2
The mixture was incubated at 23° C. for 20 min • (10) 2 μL of ATP solution was added, and the mixture was centrifuged at 1000 rpm and was shaken to mix well • (11) The plate was covered, shaken for about 30 s, and incubated for 2 h at 23° C. • (12) 5 μL of ADP-Glo reagent containing 10 mM MgCl2 was added • (13) The mixture was centrifuged at 1000 rpm for 10 s, covered and shaken for about 30 s, and incubated at 23° C. for 60 min • (14) 10 μL of kinase assay reagent was added • (15) The mixture was centrifuged at 1000 rpm for 10 s, and incubated at 23° C. for 60 min • (16) Fluorescence values were measured by an Envision system. • 2. […] The mixture was incubated at 37° C./CO2 for 10 min. • 5) The compound was removed by pipette. Lysis buffer was added at 50 μL/well, and the cells wereincubated on a shaker for 30 min. • 6) After the cells were completely lysed, 16 μL of lysate was transferred to a 384-well plate and 4 μL of prepared AC+D2 in the kit was added. (AC: Eu3+-cryptate antibody binds to phosphorylated AKT, while D2 binds to non-phosphorylated AKT) The mixture was incubated at room temperature for 4 h.

Take `CC(C)n1cc(-c2nn(C(C)c3nc4ccc(F)cn4c(=O)c3-c3cccc(F)c3)c3ncnc(N)c23)cn1` (stereo not drawn) [WX038]: the IC50 (in general, the concentration that gives 50% inhibition) in the data set with TMD-8 cell came out at 2320 nM; at PI3K delta, 39.9 nM; against PI3K gamma it was 2440 nM. In data set [1] (female, Balb/c, mouse, plasma, 1 mg/kg, note lists it as an intravenous parameter, read-out: T1/2 (half-life) (converted)), the half-life is 1.76 h. The clearance (in general, the rate of elimination divided by the concentration) in data set [1] (female, Balb/c, mouse, plasma, intravenous 1 mg/kg, read-out: Cl (clearance)) is 14.2 mL/min/kg. Also, the Vd in data set [1] (female, Balb/c, mouse, plasma, intravenous 1 mg/kg, read-out: Vd (apparent volume of distribution)) was found to be 1.28 L/kg. Moreover, the bioavailability – broadly, the share of a dose that reaches the circulation, judged against a reference dose that is usually intravenous – in data set [1] (female, Balb/c, mouse, plasma, oral 3 mg/kg vs intravenous 1 mg/kg, read-out: F % (oral bioavailability)) is 83.8%. The “Oral DNAUC (dose-normalized area under curve)” value in data set [1] (oral) is 1825 nM · h/mpk. The highest level in data set [2] (Cmax) was 1400 nM.
